Laboratory results: ChEMBL document CHEMBL5303573, “Mapping human microbiome drug metabolism by gut bacteria and their genes” (Nature, 2019)

Columns and labels:
[1] = bacteroides fragilis, 12 h, 2 µM
Description: The drug is tested on Bacteroides fragilis strain: DS-208 for biotransformation. The drug concentrations were measured before and after a 12-h incubation by liquid-chromatography-coupled mass spectrometry (LC–MS)

[2] = The drug is tested on Clostridium spiroforme strain: DSM1552 for biotransformation. The drug concentrations were measured before and after a 12-h incubation by liquid-chromatography-coupled mass spectrometry (LC–MS); details: thomasclavelia spiroformis, 2 µM
[3] = The drug is tested on Clostridium sp. strain: fecal isolate for biotransformation. The drug concentrations were measured before and after a 12-h incubation by liquid-chromatography-coupled mass spectrometry (LC–MS); details: 2 µM
[4] = The drug is tested on Clostridium hathewayi strain: DSM13479 for biotransformation. The drug concentrations were measured before and after a 12-h incubation by liquid-chromatography-coupled mass spectrometry (LC–MS); details: hungatella hathewayi, 2 µM
[5] = bacteroides stercoris, 12 h, 2 µM
Description: The drug is tested on Bacteroides stercoris strain: ATCC43183 for biotransformation. The drug concentrations were measured before and after a 12-h incubation by liquid-chromatography-coupled mass spectrometry (LC–MS)

[6] = enterocloster bolteae, 12 h, 2 µM
Description: The drug is tested on Clostridium bolteae strain: ATCCBAA-613 for biotransformation. The drug concentrations were measured before and after a 12-h incubation by liquid-chromatography-coupled mass spectrometry (LC–MS)

[7] = The drug is tested on Clostridium symbiosum strain: ATCC14940 for biotransformation. The drug concentrations were measured before and after a 12-h incubation by liquid-chromatography-coupled mass spectrometry (LC–MS); details: 2 µM
[8] = molecular target: T1, Acetyl esterase (Acetylxylosidase) (Bacteroides thetaiotaomicron, UniProt Q8ABF8); assay: (§1) The drug is tested on Bacteroides thetaiotaomicron strain: VPI-5482 for biotransformation. The drug concentrations were measured before and after a 12-h incubation by liquid-chromatography-coupled mass spectrometry (LC–MS); assay type: ADME; set-up: dose 2 uM; details: 2 µM
T1 sequence (Q8ABF8 whole entry): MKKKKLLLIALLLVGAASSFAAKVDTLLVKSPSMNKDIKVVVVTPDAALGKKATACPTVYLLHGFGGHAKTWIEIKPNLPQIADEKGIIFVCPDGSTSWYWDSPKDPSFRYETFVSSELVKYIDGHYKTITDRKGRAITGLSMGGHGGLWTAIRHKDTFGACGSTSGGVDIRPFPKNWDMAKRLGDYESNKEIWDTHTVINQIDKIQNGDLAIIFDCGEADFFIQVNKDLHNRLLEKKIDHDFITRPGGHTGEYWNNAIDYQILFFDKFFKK

[9] = molecular target: T2, 3-oxo-5-alpha-steroid 4-dehydrogenase (Bacteroides thetaiotaomicron, UniProt Q8A618); assay: as §1; assay type: ADME; set-up: dose 2 uM; details: 2 µM
T2 sequence (Q8A618 whole entry): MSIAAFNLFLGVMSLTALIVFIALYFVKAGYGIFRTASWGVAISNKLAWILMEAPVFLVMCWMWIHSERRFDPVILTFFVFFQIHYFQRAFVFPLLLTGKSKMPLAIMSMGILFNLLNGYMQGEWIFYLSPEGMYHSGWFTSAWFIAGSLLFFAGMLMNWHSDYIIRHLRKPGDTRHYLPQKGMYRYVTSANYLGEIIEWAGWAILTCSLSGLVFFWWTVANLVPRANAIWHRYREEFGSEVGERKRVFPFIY

[10] = The drug is tested on Eggerthella lenta strain: ATCC25559 for biotransformation. The drug concentrations were measured before and after a 12-h incubation by liquid-chromatography-coupled mass spectrometry (LC–MS); details: 2 µM
[11] = The drug is tested on Bifidobacterium ruminantium strain: fecal isolate for biotransformation. The drug concentrations were measured before and after a 12-h incubation by liquid-chromatography-coupled mass spectrometry (LC–MS); details: 2 µM
[12] = molecular target: T3, Flavodoxin (Collinsella aerofaciens, UniProt A4ED08); assay: (§2) The drug is tested on Collinsella aerofaciens strain: ATCC25986 for biotransformation. The drug concentrations were measured before and after a 12-h incubation by liquid-chromatography-coupled mass spectrometry (LC–MS); assay type: ADME; set-up: dose 2 uM; details: 2 µM
T3 sequence (A4ED08 whole entry): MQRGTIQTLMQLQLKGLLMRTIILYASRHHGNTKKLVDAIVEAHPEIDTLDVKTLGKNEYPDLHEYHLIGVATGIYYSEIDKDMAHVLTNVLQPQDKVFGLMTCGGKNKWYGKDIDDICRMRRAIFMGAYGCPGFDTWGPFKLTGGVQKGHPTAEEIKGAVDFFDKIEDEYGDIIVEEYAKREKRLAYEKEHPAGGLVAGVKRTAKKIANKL

[13] = molecular target: T4, Diguanylate cyclase (Collinsella aerofaciens, UniProt A4EB91); assay: as §2; assay type: ADME; set-up: dose 2 uM; details: 2 µM
T4 sequence (A4EB91 whole entry): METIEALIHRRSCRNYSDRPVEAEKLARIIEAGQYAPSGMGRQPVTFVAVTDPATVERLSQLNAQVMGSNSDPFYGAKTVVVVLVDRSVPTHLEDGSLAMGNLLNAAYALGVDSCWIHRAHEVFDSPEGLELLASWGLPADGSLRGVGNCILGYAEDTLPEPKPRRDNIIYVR

[14] = molecular target: T5, GDSL-like protein (Collinsella aerofaciens, UniProt A4E7D0); assay: as §2; assay type: ADME; set-up: dose 2 uM; details: 2 µM
T5 sequence (A4E7D0 whole entry): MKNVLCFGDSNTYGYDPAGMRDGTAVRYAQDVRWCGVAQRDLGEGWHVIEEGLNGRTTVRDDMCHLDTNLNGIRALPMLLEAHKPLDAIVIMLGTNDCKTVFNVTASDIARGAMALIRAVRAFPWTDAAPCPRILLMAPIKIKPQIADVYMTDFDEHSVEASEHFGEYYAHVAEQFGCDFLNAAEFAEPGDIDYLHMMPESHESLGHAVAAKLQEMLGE

[15] = molecular target: T6, Pyridine nucleotide-disulfide oxidoreductase (Collinsella aerofaciens, UniProt A4EBM5); assay: as §2; assay type: ADME; set-up: dose 2 uM; details: 2 µM
T6 sequence (A4EBM5 whole entry): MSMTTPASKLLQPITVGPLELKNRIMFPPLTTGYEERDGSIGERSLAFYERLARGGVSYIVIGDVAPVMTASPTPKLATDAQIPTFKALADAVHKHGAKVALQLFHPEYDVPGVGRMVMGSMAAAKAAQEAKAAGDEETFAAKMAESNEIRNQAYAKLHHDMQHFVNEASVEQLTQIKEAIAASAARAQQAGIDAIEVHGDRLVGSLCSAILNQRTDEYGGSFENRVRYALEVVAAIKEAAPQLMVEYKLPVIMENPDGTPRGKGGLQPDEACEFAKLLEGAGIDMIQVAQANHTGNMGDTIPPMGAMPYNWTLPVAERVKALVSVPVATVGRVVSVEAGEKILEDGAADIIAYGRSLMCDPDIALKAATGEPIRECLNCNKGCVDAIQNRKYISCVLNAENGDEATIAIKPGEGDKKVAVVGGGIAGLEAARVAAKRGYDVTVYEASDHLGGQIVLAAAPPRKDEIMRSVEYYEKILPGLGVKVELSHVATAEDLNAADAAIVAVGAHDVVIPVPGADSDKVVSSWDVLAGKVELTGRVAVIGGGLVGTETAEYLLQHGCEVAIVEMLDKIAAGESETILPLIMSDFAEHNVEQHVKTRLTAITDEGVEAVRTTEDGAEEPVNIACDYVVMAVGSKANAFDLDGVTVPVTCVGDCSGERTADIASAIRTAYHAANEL

| Compound | Bacterial Biotransformation [1] | Bacterial Biotransformation [2] | Bacterial Biotransformation [3] | Bacterial Biotransformation [4] | Bacterial Biotransformation [5] | Bacterial Biotransformation [6] | Bacterial Biotransformation [7] | Bacterial Biotransformation [8] | Bacterial Biotransformation [9] | Bacterial Biotransformation [10] | Bacterial Biotransformation [11] | Bacterial Biotransformation [12] | Bacterial Biotransformation [13] | Bacterial Biotransformation [14] | Bacterial Biotransformation [15] |
| --- | --- | --- | --- | --- | --- | --- | --- | --- | --- | --- | --- | --- | --- | --- | --- |
| C[C@@H]1CC[C@H]2[C@@H](C)C(=O)O[C@@H]3O[C@@]4(C)CC[C@@H]1[C@]32OO4 [ARTEMISININ] | Compound metabolized | Compound metabolized | Compound metabolized | Compound metabolized | Compound metabolized | Compound metabolized | Compound metabolized | Compound NOT metabolized | Compound NOT metabolized | Compound metabolized | Compound metabolized | Compound NOT metabolized | Compound NOT metabolized | Compound NOT metabolized | Compound NOT metabolized |
| CC(=O)Nc1ccc(OC(C)=O)cc1 [DIACETAMATE] | Compound metabolized | – | Compound NOT metabolized | – | Compound metabolized | Compound metabolized | Compound metabolized | Compound metabolized | Compound NOT metabolized | Compound metabolized | Compound metabolized | Compound NOT metabolized | Compound NOT metabolized | Compound metabolized | Compound NOT metabolized |
| CCN(CC)C(=O)/C(C#N)=C/c1cc(O)c(O)c([N+](=O)[O-])c1 [ENTACAPONE] | Compound metabolized | – | Compound metabolized | – | Compound metabolized | Compound metabolized | Compound metabolized | Compound NOT metabolized | Compound NOT metabolized | Compound metabolized | Compound metabolized | Compound NOT metabolized | Compound metabolized | Compound NOT metabolized | Compound NOT metabolized |
